Source: patent US6429173B1, “Defloration agent for apple trees” (Agro-Kanesho Co., Ltd., priority 1998, dated 2002)

Test system: apple tree (variety: Fuji)
Experiment: Defloration effect (percentage of remaining fruits) after spraying a flowering apple branch
Type: in vivo
Settings: Low temperature condition (14.6° C.); ethephon alone 100 ppm, compound (I) 0 ppm; 30 days after spraying
Text: The ME preparation and ethephon preparation produced as described above were mixed together to obtain an application solution.
A branch having about 50 bunches of flowers was selected from a 13-year old apple tree (variety: Fuji). The application solution produced as described above was sprayed over the whole branch with a knapsack sprayer on the day after the full blossom of the central flower. The evaluation results are shown by percentages of remaining fruits (both central and lateral fruits) calculated by the formula shown below. The phytotoxicity was determined on the basis of defoliation, discolored leaves, state of leaves and also state of russet, and the results were classified into the following 5 ranks (− to +++).
Percentage of remaining fruits ≈ number of normal fruits on the test day/number of flowers on the treatment day × 100

O=P(O)(O)CCCl [Ethephon, 2-chloroethylphosphonic acid] was tested, and the “Fruit setting rate (%) Central fruit” value was 83% and the “Fruit setting rate (%) Lateral fruit” value was 42%.
